Measured values as given in patent US20260285853A1, “COMPOUNDS AND METHODS FOR MODULATING SPLICING” (REMIX THERAPEUTICS INC., priority 2023, published 2026).

Columns and labels:
HTT mRNA = assay: Splicing RT-qPCR assay, canonical (CJ) and alternative (AJ) junction mRNA, K562 cells; format: cell-based; settings: Homo sapiens, K562.3 cells, 24 hours; for AC50: read-out: HTT AJ (AC50, increase in AJ mRNA); for IC50: read-out: HTT CJ (IC50, decrease in CJ mRNA)
Summary of the method: (§1)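 K562 cells in IMDM/10% FBS treated 24 h at 37 °C with an 11-point 3-fold dilution (top 10 uM, ≤0.25% DMSO). Lysates went to one-step RT-qPCR for CJ and AJ junctions, normalized to GAPDH or GUSB; ΔΔCt vs DMSO converted to RQ, then to percentage response using fixed ΔCt windows.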

MYB mRNA = assay: as above; format: cell-based; settings: Homo sapiens, K562.3 cells, 24 hours; for AC50: read-out: MYB AJ (AC50, increase in AJ mRNA); for IC50: read-out: MYB CJ (IC50, decrease in CJ mRNA)
Summary of the method: as §1

Compound	AC50 (HTT mRNA) [nM]	IC50 (HTT mRNA) [nM]	AC50 (MYB mRNA) [nM]	IC50 (MYB mRNA) [nM]
CN[C@H]1C[C@@H](C)N(c2ccc(C(=O)Nc3cc(F)c4nc(C)cn4c3)c3nn(C)cc23)C1 (single isomer, unassigned) [Compound 128]	1000 to 10000	100 to 1000	100 to 1000	100 to 1000
CN[C@H]1CCN(c2ccc(C(=O)Nc3cc(F)c4nc(C)cn4c3)c3nn(C)cc23)[C@H]1C (single isomer, unassigned) [Compound 152]	> 10000	> 10000	1000 to 10000	1000 to 10000
CN[C@@H]1CCN(c2ccc(C(=O)Nc3cc(F)c4nc(C)cn4c3)c3nn(C)cc23)[C@@H]1C (single isomer, unassigned) [Compound 153]	1000 to 10000	100 to 1000	< 100	< 100
CN[C@H]1CCN(c2ccc(C(=O)Nc3cc(F)c4nc(C)cn4c3)c3nn(C)cc23)[C@@H]1C (single isomer, unassigned) [Compound 154]	> 10000	> 10000	100 to 1000	100 to 1000
COCCN[C@@H]1CCN(c2ccc(C(=O)Nc3cc(F)c4nc(C)cn4c3)c3nn(C)cc23)C1 [Compound 113, N-(8-fluoro-2-methyl-imidazo[1,2-a]pyridin-6-yl)-4-[(3R)-3-(2-methoxyethylamino)pyrrolidin-1-yl]-2-methyl-indazole-7-carboxamide]	> 10000	> 10000	100 to 1000	100 to 1000
COCC1(N[C@H]2CCN(c3ccc(C(=O)Nc4cc(F)c5nc(C)cn5c4)c4nn(C)cc34)C2)CC1 [Compound 118, (S)—N-(8-fluoro-2-methylimidazo[1,2-a]pyridin-6-yl)-4-(3-((1-(methoxymethyl)cyclopropyl)amino)pyrrolidin-1-yl)-2-methyl-2H-indazole-7-carboxamide]	> 10000	1000 to 10000	1000 to 10000	1000 to 10000
COCC1(N[C@@H]2CCN(c3ccc(C(=O)Nc4cc(F)c5nc(C)cn5c4)c4nn(C)cc34)C2)CC1 [Compound 119, (R)—N-(8-fluoro-2-methylimidazo[1,2-a]pyridin-6-yl)-4-(3-((1-(methoxymethyl)cyclopropyl)amino)-pyrrolidin-1-yl)-2-methyl-2H-indazole-7-carboxamide]	> 10000	1000 to 10000	100 to 1000	100 to 1000
CN[C@@H]1C[C@@H](C)N(c2ccc(C(=O)Nc3cc(F)c4nc(C)cn4c3)c3nn(C)cc23)C1 [Compound 129, N-(8-fluoro-2-methyl-imidazo[1,2-a]pyridin-6-yl)-2-methyl-4-[(2R,4R)-2-methyl-4-(methylamino)pyrrol-idin-1-yl]indazole-7-carboxamide]	1000 to 10000	1000 to 10000	100 to 1000	100 to 1000
CCN[C@@H]1CCN(c2cc(O)c(C(=O)Nc3cc(F)c4nc(C)cn4c3)c3nn(C)cc23)C1 [Compound 144, 4-[3-(ethylamino)pyrrolidin-1-yl]-N-(8-fluoro-2-methyl-imidazo[1,2-a]pyridin-6-yl)-6-hydroxy-2-methyl-indazole-7-carboxamide]	> 10000	> 10000	< 100	< 100
CN[C@H]1CCN(c2c(O)cc(C(=O)Nc3cc(F)c4nc(C)cn4c3)c3nn(C)cc23)C1 [Compound 149, N-(8-fluoro-2-methyl-imidazo[1,2-a]pyridin-6-yl)-5-hydroxy-2-methyl-4-[(3S)-3-(methylamino)pyrrolidin-1-yl]-indazole-7-carboxamide]	> 10000	1000 to 10000	1000 to 10000	1000 to 10000
CN[C@@H]1CCN(c2ccc(C(=O)Nc3cc(F)c4nc(C)cn4c3)c3nn(C)cc23)[C@H]1C [Compound 155, N-(8-fluoro-2-methylimidazo-[1,2-a]pyridin-6-yl)-2-methyl-4-[(2S,3R)-2-methyl-3-(methylamino)-pyrrolidin-1-yl]indazole-7-carboxamide]	> 10000	> 10000	> 10000	1000 to 10000
Cc1cn2cc(NC(=O)c3c(F)cc(N4CC[C@H](NCC56CC(CO5)C6)C4)c4cn(C)nc34)cc(F)c2n1 [Compound 157, 6-fluoro-N-(8-fluoro-2-methyl-imidazo[1,2-a]pyridin-6-yl)-2-methyl-4-[(3S)-3-(2-oxabicyclo[2.1.1]hexan-1-ylmethylamino)pyrrolidin-1-yl]indazole-7-carboxamide]	> 10000	> 10000	< 100	100 to 1000
CN[C@H]1CCN(c2ccc(C(=O)Nc3cc(F)c4nc(C)cn4c3)c3c2nnn3C)C1 [Compound 160, N-(8-fluoro-2-methyl-imidazo[1,2-a]pyridin-6-yl)-3-methyl-7-[(3S)-3-(methylamino)-pyrrolidin-1-yl]benzotriazole-4-carboxamide]	> 10000	> 10000	> 10000	> 10000
CN[C@H]1CCN(c2ccc(C(=O)Nc3cc(F)c4nc(C)cn4c3)c3nn(C)nc23)C1 [Compound 163, (S)-N-(8-fluoro-2-methylimidazo-[1,2-a]pyridin-6-yl)-2-methyl-7-(3-(methylamino)pyrrolidin-1-yl)-2H-benzo[d]-[1,2,3]triazole-4-carboxamide]	100 to 1000	100 to 1000	100 to 1000	100 to 1000
CN[C@H]1CCN(c2ccc(C(=O)Nc3cc(F)c4nc(C)cn4c3)c3nnn(C)c23)C1 [Compound 166, (S)-N-(8-fluoro-2-methylimidazo-[1,2-a]pyridin-6-yl)-1-methyl-7-(3-(methylamino)pyrrolidin-1-yl)-1H-benzo[d]-[1,2,3]triazole-4-carboxamide]	> 10000	> 10000	100 to 1000	100 to 1000
CCNC1CCN(c2ccc(C(=O)Nc3cc(OC)c4nc(C)cn4c3)c3nn(C)cc23)CC1 [Compound 175, 4-(4-(ethylamino)piperidin-1-yl)-N-(8-methoxy-2-methyl-imidazo-[1,2-a]pyridin-6-yl)-2-methyl-2H-indazole-7-carboxamide]	1000 to 10000	100 to 1000	100 to 1000	100 to 1000
CCNC1CCN(c2ccc(C(=O)Nc3ccc4nc(C)cn4c3)c3nn(C)cc23)CC1 [Compound 176, 4-[4-(ethylamino)-1-piperidyl]-2-methyl-N-(2-methylimidazo[1,2-a]pyridin-6-yl)-indazole-7-carboxamide]	> 10000	1000 to 10000	100 to 1000	100 to 1000
CCNC1CCN(c2ccc(C(=O)Nc3cc(F)c4nc(C(C)C)cn4c3)c3nn(C)cc23)CC1 [Compound 177, 4-[4-(ethylamino)-1-piperidyl]-N-(8-fluoro-2-isopropyl-imidazo[1,2-a]pyridin-6-yl)-2-methyl-indazole-7-carboxamide]	> 10000	1000 to 10000	> 10000	> 10000
CCNC1CCN(c2ccc(C(=O)Nc3cc4cn(C)nc4cc3OC)c3[nH]ccc23)CC1 [Compound 178, 4-[4-(ethylamino)-1-piperidyl]-N-(6-methoxy-2-methyl-indazol-5-yl)-1H-indole-7-carboxamide]	> 10000	> 10000	> 10000	> 10000
CNC1(C)CCN(c2cc(F)c(C(=O)Nc3cc(F)c4nc(C)cn4c3)c3nn(C)cc23)CC1 [Compound 179, 6-fluoro-N-(8-fluoro-2-methyl-imidazo[1,2-a]pyridin-6-yl)-2-methyl-4-[4-methyl-4-(methylamino)-1-piperidyl]indazole-7-carboxamide]	< 100	< 100	< 100	< 100
CNC1(C)CCN(c2cc(F)c(C(=O)Nc3cn4cc(C)nc4c(F)c3OC)c3nn(C)cc23)CC1 [Compound 180, 6-fluoro-N-(8-fluoro-7-methoxy-2-methyl-imidazo[1,2-a]pyridin-6-yl)-2-methyl-4-[4-methyl-4-(methylamino)-1-piperidyl]indazole-7-carboxamide]	< 100	< 100	< 100	< 100
CCNC1CCN(c2ccc(C(=O)Nc3cn4cc(C)nc(C)c4n3)c3nn(C)cc23)CC1 [Compound 181, N-(6,8-dimethylimidazo [1,2-a]pyrazin-2-yl)-4-[4-(ethylamino)-1-piperidyl]-2-methyl-indazole-7-carboxamide]	100 to 1000	100 to 1000	100 to 1000	100 to 1000
CCNC1CCN(c2ccc(C(=O)Nc3cc(F)c4nn(C)cc4c3)c3nn(C)cc23)CC1 [Compound 182, 4-(4-(ethylamino)piperidin-1-yl)-N-(7-fluoro-2-methyl-2H-indazol-5-yl)-2-methyl-2H-indazole-7-carboxamide]	1000 to 10000	1000 to 10000	100 to 1000	< 100
Cc1cn2cc(NC(=O)c3ccc(N4CCC(NC5CC5)CC4)c4cc(C)oc34)cc(F)c2n1 [Compound 185, 4-[4-(cyclopropyl-amino)-1-piperidyl]-N-(8-fluoro-2-methyl-imidazo[1,2-a]pyridin-6-yl)-2-methyl-benzofuran-7-carboxamide]	1000 to 10000	1000 to 10000	100 to 1000	100 to 1000
CCNC1CCN(c2ccc(C(=O)Nc3cc(C)c4nc(C)cn4n3)c3nn(C)cc23)CC1 [Compound 186, N-(2,8-dimethylimidazo [1,2-b]pyridazin-6-yl)-4-[4-(ethylamino)-1-piperidyl]-2-methyl-indazole-7-carboxamide]	100 to 1000	100 to 1000	100 to 1000	100 to 1000
